Test results from patent US6774141B1, “Calanolide and related antiviral compounds, compositions, and uses thereof” (The United States of America as represented by the …, priority 1992, dated 2004).
Where two headings read alike, the source gives them in different places.

Legend:
HIV-1 [1] = experiment: microbe, parasite or virus in culture; settings: for anti-HIV activity in the primary screening assay / inhibition of the cytopathic effects of HIV-1 upon CEM-SS cells: result in words; for antiviral potency relative to calanolide A: overall of XTT and BCECF assays; for inhibition of the cytopathic effects of HIV-1 upon CEM-SS cells: battery of interrelated assays, 6 days
Text: Pure compounds were initially evaluated for antiviral activity using an XTT-tetrazolium anti-HIV primary screening assay described previously (Boyd, M. R., in AIDS Etiology, Diagnosis, Treatment and Prevention (DeVita V. T., Jr., Hellman S., Rosenberg S. A., eds.), pp 305-319 (Philadelphia: Lippincott, 1988); Gustafson, K. R., et al., J. Med. Chem., 35, 1978-1986 (1992); Weislow, O. S., et al., J. Natl. Cancer Inst., 81, 577-586 (1989); Gulakowski, R. J., et al., J. Virol. Methods, 33, 87-100 (1991)). The CEM-SS human lymphocytic target cell line used in all assays was maintained in RPMI 1640 medium (Gibco, Grand Island, N.Y.), without phenol red, and was supplemented with 5% fetal bovine serum, 2 mM L-glutamine and 50 μg/ml gentamicin (complete medium). Exponentially-growing cells were pelleted and resuspended at a concentration of 2.0×10^5 cells/ml in complete medium. The Haitian variant of HIV, HTLV-IIIRF (3.54×10^6 SFU/ml), was used throughout. Frozen virus stock solutions were thawed immediately before use and resuspended in complete medium to yield […]. The appropriate amounts of the pure compounds for anti-HIV evaluations were dissolved in 100% dimethylsulfoxide (DMSO), then diluted in complete medium to the desired initial concentration (and with the final DMSO content not exceeding 1%). All serial drug dilutions, reagent additions, and plate-to-plate transfers were carried out with an automated Biomek 1000 Workstation (Beckman Instruments, Palo Alto, Calif.).
Briefly, the procedure was as follows. Uninfected CEM-SS cells were plated at a density of 1×10^4 cells in 50 μl of complete medium. Diluted HIV-1 virus was then added to appropriate wells in a volume of 50 μl to yield a multiplicity of infection of 0.6. Appropriate cell, virus and drug controls were incorporated in each experiment; the final volume in each microtiter well was 200 μl. Quadruplicate wells were used for virus-infected cells, and duplicate wells were used for uninfected cells. Plates were incubated at 37° C. in an atmosphere containing 5% CO2 for 6 days. Subsequently, aliquots of cell-free supernatant were removed from each well using the Biomek, and analyzed for reverse transcriptase activity, p24 antigen production and synthesis of infectious virions as described (Gulakowski, R. J., et al., J. Virol. Methods, 33, 87-100 (1991)). Cellular growth or viability then was estimated on the remaining contents of each well using the XTT (Weislow, O. S., et al., J. Natl. Cancer Inst., 81, 577-586 (1989)), BCECF (Rink, T. L., et al., J. Cell. Biol., 95, 189-196 (1982)) and DAPI (McCaffrey, T. A., et al., In Vitro Cell Develop. Biol., 24, 247-252 (1988)) assays as described (Gulakowski, R. J., et al., J. Virol. Methods, 33, 87-100 (1991)).

CEM-SS cells [2] = experiment: XTT assay, direct cytotoxicity upon uninfected CEM-SS target cells; assay type: cell-based, human
Text: (§1) Briefly, the procedure was as follows.

CEM-SS cells [3] = experiment: BCECF assay, direct cytotoxicity upon uninfected CEM-SS target cells; assay type: cell-based, human; settings: quadruplicate tests, cytotoxicity to CEM-SS, read-out: IC50 μM (± SD) BCECF
Text: as §1

HIV-1 [4] = settings: for EC50: read-out: EC50 μM (±S.D.) p24, quadruplicate tests, supernatant viral core protein
HIV-1 [5] = settings: for EC50: read-out: EC50 μM (±S.D.) RT, quadruplicate tests, supernatant reverse transcriptase
HIV-1 [6] = settings: for EC50: read-out: EC50 μM (±S.D.) SFU, quadruplicate tests, supernatant syncytium-forming units
[7] = XTT assay, direct cytotoxicity upon uninfected CEM-SS target cells; assay type: cell-based, human; settings: human, uninfected CEM-SS cells; FIGS. 4A-D, CEM-SS cells, 6 days
Text: as §1

HIV-1 [8] = experiment: microbe, parasite or virus in culture; settings: Human immunodeficiency virus 1, CEM-SS, read-out: EC50 μM (±S.D.) p24
HIV-1 [9] = experiment: microbe, parasite or virus in culture; settings: Human immunodeficiency virus 1, CEM-SS, read-out: EC50 μM (±S.D.) RT
HIV-1 [10] = experiment: microbe, parasite or virus in culture; settings: Human immunodeficiency virus 1, CEM-SS, read-out: EC50 μM (±S.D.) SFU
HIV = settings: in most patients; cited from earlier work
[11] = primary screening assay, HIV-1 in CEM-SS cells
[12] = primary screening assay, cytotoxicity to CEM-SS cells, read-out: IC50
[13] = read-out: EC50 μM (± SD) BCECF, quadruplicate tests, HIV-1 strain RF, CEM-SS
[14] = read-out: EC50 μM (± SD) XXT, quadruplicate tests, HIV-1 strain RF, CEM-SS
[15] = quadruplicate tests, cytotoxicity to CEM-SS, read-out: IC50 μM (± SD) XXT
[16] = HIV-1-infected CEM-SS, FIG. 4D, result in words

Compound	anti-HIV activity in the primary screening assay (HIV-1 [1]; HIV-1 in CEM-SS cells)	antiviral potency relative to calanolide A (HIV-1 [1]; HIV-1 strain RF, CEM-SS)	EC50 (HIV-1 [1]; [13]) [µM]	EC50 (HIV-1 [1]; [14]) [µM]	IC50 (CEM-SS cells [2]; [15]) [µM]	IC50 (CEM-SS cells [3]) [µM]	EC50 (HIV-1 [4]) [µM]	EC50 (HIV-1 [5]) [µM]	EC50 (HIV-1 [6]) [µM]	other results
CCCc1cc(=O)oc2c3c(c4c(c12)OC(C)(C)C=C4)O[C@H](C)[C@@H](C)[C@@H]3OC(C)=O [12-acetoxycalanolide A]	active									EC50 (HIV-1 [1]; [11]): 2.7 µM; IC50 (CEM-SS cells [2]; [12]): 13 µM
CCCc1cc(=O)oc2c3c(c4c(c12)OC(C)(C)C=C4)O[C@H](C)[C@@H](C)[C@@H]3OC [12-methoxycalanolide A]	not detectable									
CCCc1cc(=O)oc2c3c(c4c(c12)OC(C)(C)C=C4)O[C@H](C)[C@@H](C)[C@H]3OC [12-methoxycalanolide B]	weak but detectable									
CCCc1cc(=O)oc2c3c(c4c(c12)OC(C)(C)C=C4)OC(C)C(C)C3O (stereo not shown) [Compound 6]	weak but detectable									
CCCc1cc(=O)oc2c3c(c4c(c12)OC(C)(C)C=C4)O[C@@H](C)[C@H](C)[C@@H]3O [Costatolide, costatolide]		about ⅔	0.2	0.23	10	8	0.11	0.12	0.14	
CCCc1cc(=O)oc2c3c(c4c(c12)OC(C)(C)CC4)O[C@H](C)[C@@H](C)[C@@H]3O [DH-calanolide A, 7,8-dihydrocalanolide A]		about ⅔	0.19	0.23	12.5	18.7	0.12	0.13	0.17	
CCCc1cc(=O)oc2c3c(c4c(c12)OC(C)(C)CC4)O[C@@H](C)[C@H](C)[C@@H]3O [DH-costatolide, 7,8-dihydrocostatolide]		about ⅓	0.31	0.3	18.7	10.3	0.24	0.25	0.19	
CCCc1cc(=O)oc2c3c(c4c(c12)OC(C)(C)C=C4)O[C@H](C)[C@@H](C)[C@@H]3O [calanolide A]	complete protection									EC50 (HIV-1 [1]; Human immunodeficiency virus 1, CEM-SS, 144 h, read-out: EC50, inhibition of the cytopathic effects of HIV-1): ~0.1 µM; EC50 (HIV-1 [1]; Human immunodeficiency virus 1, CEM-SS, read-out: EC50 μM (± SD) BCECF): 0.16 µM; EC50 (HIV-1 [1]; Human immunodeficiency virus 1, CEM-SS, read-out: EC50 μM (± SD) XXT): 0.13 µM; inhibition of the cytopathic effects of HIV-1 upon CEM-SS cells (HIV-1 [1]): complete inhibition; IC50 at 6 days [7]: ~13000 nM; IC50 (CEM-SS cells [2]; Homo sapiens, quadruplicate tests, cytotoxicity to CEM-SS, read-out: IC50 μM (± SD) XXT): 14.3 µM; IC50 (CEM-SS cells [3]; Homo sapiens): 14.3 µM; production of p24 (HIV-1 [4]; [16]): strikingly inhibited; production of RT (HIV-1 [5]; [16]): strikingly inhibited; production of SFU (HIV-1 [6]; [16]): strikingly inhibited; EC50 (HIV-1 [8]): 0.07 µM; EC50 (HIV-1 [9]): 0.07 µM; EC50 (HIV-1 [10]): 0.08 µM
Nc1ccn([C@H]2CC[C@@H](CO)O2)c(=O)n1 [ddC, 2′,3′-dideoxycytidine]										virustatic range, dose (HIV): 0.005-0.25 mg/kg body weight
calanolide B	complete inhibition									inhibition of the cytopathic effects of HIV-1 upon CEM-SS cells (HIV-1 [1]): complete protection; EC50 (HIV-1 [1]; [11]): 0.4 µM; IC50 (CEM-SS cells [2]; [12]): 15 µM
